In patent US20240398805A1, “QUINAZOLINE DERIVED COMPOUNDS AS EGFR INHIBITORS AND THEIR USES THEREOF” (ACCUTAR BIOTECHNOLOGY INC., priority 2021, published 2024):

Legend:
Format in all cases: cell-based
HCC827 cells = experiment: Cell growth inhibition (CellTiter-Glo, 3 days) in HCC827; conditions: Homo sapiens, 72 h, 3 days after administration
Experimental: (§1) 2. Cell Growth Inhibition for HCC827, HCC827-SVD, HCC827-ASV, HCC827-YVMA and A431.
(§2) HCC827(ATCC), HCC827-SVD, HCC827-ASV, HCC827-YVMA were seeded in 96-well plates at 5000 cells/well in 90 μl of RPMI growth medium containing 10% FBS and 1% Penicillin Streptomycin. A431 (ATCC) cells were seed in 96-well plates at 5000 cells/well in 90 μl of DMEM growth medium containing 10% FBS and 1% Penicillin Streptomycin. Cells were incubated at 3700 overnight. The following day, the test compound was administered to the cells by using 1 Ox compound stock solution prepared in growth medium at various concentrations. After administration of the compound, cells were then incubated at 3700 for 3 days. Before CeIlTiter-Glo assay, the plates were equilibrated at room temperature for approximately 10 minutes. 100 ul of CelTiter-Glo® Reagent (Promega) was added to each well. The plates were then incubated at room temperature for 10 minutes and luminescence was recorded by EnSpire plate reader (PerkinElmer).

[1] = system: HCC827-SVD cells (human EGFR exon 20 insertion mutant D770_N771 insSVD); experiment: Cell growth inhibition (CellTiter-Glo, 3 days) in HCC827-SVD; conditions: 72 h, 3 days after administration
Experimental: (§3) 1. Preparation of HCC827-SVD, HCC827-ASV and HCC827-YVMA Cell Lines
HCC827-SVD cell line were generated by first transducing HCC827 cells (ATCC) with lentiviral particles expressing codon-optimized human EGFR exon 20 insertion mutant D770_N771 insSVD, and then selecting under 5 μg/ml purimycin treatment for a week.
The resulting cells were further transduced with lentiviral particles carrying EGFR sgRNA and CAS9 to knockout the endogenous alleles of EGFR, and then selected under 500 μg/ml hygromycin B treatment for two weeks. Single clone was subsequently generated by limiting dilution approach. Endogenous EGFR knockout was confirmed by Sanger sequencing of cell genomic DNA and expression of exogenous mutant EGFR was verified by Western blot analysis.
as §1, §2

[2] = system: HCC827-ASV cells (human EGFR exon 20 insertion mutant A769_D770insASV); experiment: Cell growth inhibition (CellTiter-Glo, 3 days) in HCC827-ASV; conditions: 72 h, 3 days after administration
From the text: as §3
(§4) HCC827-ASV and HCC827-YVMA cell lines were generated in the similar approach as HCC827-SVD except that HCC827 cells (ATCC) were first transduced with lentiviral particles expressing codon-optimized human EGFR exon 20 insertion mutant A769_D770insASV and human ERBB2 exon20 insertion mutant A775_G776ins YVMA, respectively.
as §1, §2

[3] = system: HCC827-YVMA cells (human ERBB2 exon20 insertion mutant A775_G776ins YVMA); experiment: Cell growth inhibition (CellTiter-Glo, 3 days) in HCC827-YVMA; conditions: 72 h, 3 days after administration
From the text: as §3, §4, §1, §2

A431 cells = experiment: Cell growth inhibition (CellTiter-Glo, 3 days) in A431; conditions: Homo sapiens, A-431, 72 h, 3 days after administration
Experimental: as §1, §2

Compound | GI50 (HCC827 cells) | GI50 [1] | GI50 [2] | GI50 [3] | GI50 (A431 cells)
C=CC(=O)N1CCC(Nc2cc3c(Nc4ccc(Oc5ccn(-c6nc(OC)nc(OC)n6)n5)cc4F)ncnc3cc2OC)CC1 [Compound 31, 1-(4-((4-((4-((1-(4,6-dimethoxy-1,3,5-triazin-2-yl)-1H-pyrazol-3-yl)oxy)-2-fluorophenyl)amino)-7-methoxyquinazolin-6-yl)amino)piperidin-1-yl)prop-2-en-1-one] | < 30 nM | 30 to 60 nM | 30 to 60 nM | < 30 nM | < 30 nM
C=CC(=O)N1CCC(Nc2cc3c(Nc4ccc(Oc5ccnc(-c6cnn(C)c6)c5)cc4F)ncnc3cc2OC)CC1 [Compound 34, 1-(4-((4-((2-fluoro-4-((2-(1-methyl-1H-pyrazol-4-yl)pyridin-4-yl)oxy)phenyl)amino)-7-methoxyquinazolin-6-yl)amino)piperidin-1-yl)prop-2-en-1-one] | 600 to 1000 nM | 30 to 60 nM | 60 to 100 nM | 60 to 100 nM | ≥ 1000 nM
C=CC(=O)N1CCC(Nc2cc3c(Nc4ccc(Oc5ccnc(N6CCOCC6)c5)cc4F)ncnc3cc2OC)CC1 [Compound 35, 1-(4-((4-((2-fluoro-4-((2-morpholinopyridin-4-yl)oxy)phenyl)amino)-7-methoxyquinazolin-6-yl)amino)piperidin-1-yl)prop-2-en-1-one] | 100 to 300 nM | < 30 nM | < 30 nM | < 30 nM | ≥ 1000 nM
C=CC(=O)N1CCC(Nc2cc3c(Nc4ccc(Oc5ccnc(-c6cscn6)c5)cc4F)ncnc3cc2OC)CC1 [Compound 41, 1-(4-((4-((2-fluoro-4-((2-(thiazol-4-yl)pyridin-4-yl)oxy)phenyl)amino)-7-methoxyquinazolin-6-yl)amino)piperidin-1-yl)prop-2-en-1-one] | 60 to 100 nM | < 30 nM | < 30 nM | < 30 nM | 300 to 600 nM
C=CC(=O)N1CCC(Nc2cc3c(Nc4ccc(Oc5cc(-c6nc(C)no6)ccn5)cc4F)ncnc3cc2OC)CC1 [Compound 44, 1-(4-((4-((2-fluoro-4-((4-(3-methyl-1,2,4-oxadiazol-5-yl)pyridin-2-yl)oxy)phenyl)amino)-7-methoxyquinazolin-6-yl)amino)piperidin-1-yl)prop-2-en-1-one] | 30 to 60 nM | 30 to 60 nM | 30 to 60 nM | < 30 nM | 100 to 300 nM
C=CC(=O)N1CCC(Nc2cc3c(Nc4ccc(Oc5cc(-c6ccc(C)nc6)ccn5)cc4F)ncnc3cc2OC)CC1 [Compound 46, 1-[4-({4-[(2-fluoro-4-{[4-(6-methylpyridin-3-yl)pyridin-2-yl]oxy}phenyl)amino]-7-methoxyquinazolin-6-yl}amino)piperidin-1-yl]prop-2-en-1-one] | 100 to 300 nM | 30 to 60 nM | 60 to 100 nM | < 30 nM | ≥ 1000 nM
C=CC(=O)N1CCC(Nc2cc3c(Nc4ccc(Oc5nc(-c6cnc(C7CC7)nc6)cs5)cc4F)ncnc3cc2OC)CC1 [Compound 51, 1-(4-((4-((4-((4-(2-cyclopropylpyrimidin-5-yl)thiazol-2-yl)oxy)-2-fluorophenyl)amino)-7-methoxyquinazolin-6-yl)amino)piperidin-1-yl)prop-2-en-1-one] | 30 to 60 nM | 30 to 60 nM | 30 to 60 nM | 30 to 60 nM | 100 to 300 nM
C=CC(=O)N1CC2(CC(Oc3cc4c(Nc5ccc(Oc6ccn(-c7cnc(OC)nc7)n6)cc5F)ncnc4cc3OC)C2)C1 [Compound 79, 1-(6-((4-((2-fluoro-4-((1-(2-methoxypyrimidin-5-yl)-1H-pyrazol-3-yl)oxy)phenyl)amino)-7-methoxyquinazolin-6-yl)oxy)-2-azaspiro [3.3]heptan-2-yl) prop-2-en-1-one] | ≥ 1000 nM | ≥ 1000 nM | ≥ 1000 nM | ≥ 1000 nM | ≥ 1000 nM
C=CC(=O)N1CC[C@@H](Oc2cc3c(Nc4ccc(Oc5ccn(-c6cnc(OC)nc6)n5)cc4F)ncnc3cc2OC)C1 [Compound 80, (R)-1-(3-((4-((2-fluoro-4-((1-(2-methoxypyrimidin-5-yl)-1H-pyrazol-3-yl)oxy)phenyl)amino)-7-methoxyquinazolin-6-yl)oxy)pyrrolidin-1-yl) prop-2-en-1-one] | ≥ 1000 nM | ≥ 1000 nM | ≥ 1000 nM | ≥ 1000 nM | ≥ 1000 nM
C=CC(=O)N1CC2(CC(Nc3cc4c(Nc5ccc(Oc6ccn(-c7cnc(OC)nc7)n6)cc5F)ncnc4cc3OC)C2)C1 [Compound 84, 1-(6-((4-((2-fluoro-4-((1-(2-methoxypyrimidin-5-yl)-1H-pyrazol-3-yl)oxy)phenyl)amino)-7-methoxyquinazolin-6-yl)amino)-2-azaspiro[3.3]heptan-2-yl)prop-2-en-1-one] | ≥ 1000 nM | ≥ 1000 nM | ≥ 1000 nM | ≥ 1000 nM | ≥ 1000 nM
[2H]C([2H])([2H])Oc1cc2ncnc(Nc3ccc(Oc4nc(-c5ccc(C)nc5)cs4)cc3F)c2cc1NC1CCN(C(=O)C=C)CC1 [Compound 87, 1-(4-((4-((2-fluoro-4-((4-(6-methylpyridin-3-yl)thiazol-2-yl)oxy)phenyl)amino)-7-(methoxy-d3)quinazolin-6-yl)amino)piperidin-1-yl)prop-2-en-1-one] | 100 to 300 nM | 30 to 60 nM | 60 to 100 nM | 30 to 60 nM | 100 to 300 nM
C=CC(=O)N1CCC(Nc2cc3c(Nc4ccc(Oc5ccnc(-c6csc(C)n6)c5)cc4F)ncnc3cc2OC)CC1 [Compound 97, 1-(4-((4-((2-fluoro-4-((2-(2-methylthiazol-4-yl)pyridin-4-yl)oxy)phenyl)amino)-7-methoxyquinazolin-6-yl)amino)piperidin-1-yl) prop-2-en-1-one] | 30 to 60 nM | < 30 nM | < 30 nM | < 30 nM | 300 to 600 nM
C=CC(=O)N1CCC(Nc2cc3c(Nc4ccc(Oc5ccnc(N6CCCCC6)c5)cc4F)ncnc3cc2OC)CC1 [Compound 100, 1-(4-((4-((2-fluoro-4-((2-(piperidin-1-yl)pyridin-4-yl)oxy)phenyl)amino)-7-methoxyquinazolin-6-yl)amino)piperidin-1-yl)prop-2-en-1-one] | 100 to 300 nM | 100 to 300 nM | 100 to 300 nM | 100 to 300 nM | 300 to 600 nM
C=CC(=O)N1CCC(Nc2cc3c(Nc4ccc(Oc5ccnc(N6C[C@@H](C)O[C@@H](C)C6)c5)cc4F)ncnc3cc2OC)CC1 [Compound 101, 1-(4-((4-((4-((2-((2R,6S)-2,6-dimethylmorpholino)pyridin-4-yl)oxy)-2-fluorophenyl)amino)-7-methoxyquinazolin-6-yl)amino)piperidin-1-yl)prop-2-en-1-one] | 60 to 100 nM | < 30 nM | < 30 nM | < 30 nM | ≥ 1000 nM
C=CC(=O)N1CCC(Nc2cc3c(Nc4ccc(Oc5ccnc(N6CCC(C(F)(F)F)C6)c5)cc4F)ncnc3cc2OC)CC1 (stereo not drawn) [Compound 150, 1-(4-((4-((2-fluoro-4-((2-(3-(trifluoromethyl)pyrrolidin-1-yl)pyridin-4-yl)oxy)phenyl)amino)-7-methoxyquinazolin-6-yl)amino)piperidin-1-yl)prop-2-en-1-one] | < 30 nM | < 30 nM | < 30 nM | < 30 nM | 100 to 300 nM
